We go through eleven compounds from patent publication US12516058B2, “Small-molecule compounds for controlling endosomal toll-like receptors and therapeutic agent for autoimmune diseases using same” (priority 2020, dated 2026).

Entries after “also recorded” stand apart in the source; their conditions may differ.

For one experiment, the target named is T1, TLR7 (Mus musculus, UniProt P58681).
T1 construct: endogenous in cells; host or cells: RAW 264.7
T1 sequence (P58681 27-1050): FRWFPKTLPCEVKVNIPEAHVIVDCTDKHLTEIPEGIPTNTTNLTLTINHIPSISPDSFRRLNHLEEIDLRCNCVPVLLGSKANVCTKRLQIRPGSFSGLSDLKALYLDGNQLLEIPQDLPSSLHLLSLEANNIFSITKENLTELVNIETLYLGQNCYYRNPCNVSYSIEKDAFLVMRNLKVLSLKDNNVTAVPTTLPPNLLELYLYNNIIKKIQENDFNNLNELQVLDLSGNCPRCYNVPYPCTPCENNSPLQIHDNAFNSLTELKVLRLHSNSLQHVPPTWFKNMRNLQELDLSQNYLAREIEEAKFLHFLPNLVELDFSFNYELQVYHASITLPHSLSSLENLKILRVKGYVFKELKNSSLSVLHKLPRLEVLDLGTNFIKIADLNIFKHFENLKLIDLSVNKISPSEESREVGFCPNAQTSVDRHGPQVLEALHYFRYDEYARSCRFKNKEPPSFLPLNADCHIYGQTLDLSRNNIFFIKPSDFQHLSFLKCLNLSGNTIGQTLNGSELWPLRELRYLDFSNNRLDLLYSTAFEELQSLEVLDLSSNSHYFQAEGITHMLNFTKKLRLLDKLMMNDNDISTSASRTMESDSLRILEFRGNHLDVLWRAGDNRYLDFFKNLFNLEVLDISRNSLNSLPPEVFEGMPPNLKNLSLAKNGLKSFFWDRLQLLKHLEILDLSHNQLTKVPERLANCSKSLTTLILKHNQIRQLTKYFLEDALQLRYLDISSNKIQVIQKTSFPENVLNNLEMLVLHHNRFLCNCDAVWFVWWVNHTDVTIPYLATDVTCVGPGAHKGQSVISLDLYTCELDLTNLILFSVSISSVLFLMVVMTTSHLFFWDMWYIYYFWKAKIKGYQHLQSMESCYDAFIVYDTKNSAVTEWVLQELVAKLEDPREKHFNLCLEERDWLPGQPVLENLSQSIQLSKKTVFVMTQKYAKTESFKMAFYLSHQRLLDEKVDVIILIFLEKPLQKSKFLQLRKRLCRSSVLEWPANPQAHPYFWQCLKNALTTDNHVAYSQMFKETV
Briefly: TNF-α secretion ELISA after TLR7 agonist imiquimod (IMQ) in RAW 264.7 cells. It counts as cell-based. The settings on record: SK21 to SK82 at 0.5 μM or 2 μM, Imiquimod 1 μg/ml. On the procedure: (§1) In order to determine the inhibitory activities of the test-ligand, RAW 264.7 cells were pretreated with each candidate compound for 1 hour, then treated with Pam3CSK4 (synthetic triacyl lipopeptide; TLR1/2, Invitrogen), FSL-1 (synthetic diacyl lipoprotein, TLR2/6, 100 ng/ml), lipopolysaccharide (LPS, TLR4, Sigma Aldrich), imiquimod (IMQ, TLR7, Invitrogen), and ODN2395 (type C CpG repeat motif DNA oligo(5′-[…]-3), TLR9, Bioneer) ligand for 4 hours, and treated with poly I:C (I:C repeat motif double-stranded RNA, TLR3, Invitrogen) and TL8-506 (TLR8, Invitrogen) showing delayed reactivity for 24 hours. After activation of TLR, the supernatant was diluted in an appropriate ratio so as to measure within the standard dose range, transferred to a pre-coated 96-well assay plate, and then treated with mouse TNF-alpha secretion level in accordance with the manufacturer's instructions using a mouse-TNF-alpha ELISA-kit (Invitrogen).
(§2) In order to plot the concentration-dependent LC50 curves, treatment with the SK series ligands at different concentrations up to 200 μM (the highest concentration that could be treated within the level of 0.5% DMSO) was performed. Then, cell viability and toxicity response upon treatment with ligands were analyzed by MTT as described in Examples 1-3. Cell viability in each plot was normalized from negative control (100%; no treatment) to positive control (highest concentration of test-ligand), and LC50 was determined by non-linear regression (Graph Pad Prism 7.0). In order to plot the concentration-dependent IC50 curves, pre-treatment with the SK series ligands was performed at different concentrations up to 50 μM (twice the initial concentration). Cell responses mediated by TLR7 and TLR9 (levels of TNF-α secretion) were analyzed by ELISA as described in Examples 1-4. The cytokine level in each plot was normalized from negative control (non-treated) to positive control (treatment with ligand), and IC50 was determined by non-linear regression (Graph Pad Prism 7.0).
(§3) In order to select potential inhibitory molecules against TLR3/TLR7/TLR8/TLR9 activation, first, MTT (3-(4,5-dimethylthiazol-2-yl)-2,5-diphenyltetrazolium bromide) cell viability assay (FIG. 7) was performed upon treatment with a set of ligands from SK21 to SK82 at a concentration of 20 μM and the inhibitory activity thereof was evaluated by an ELISA assay to monitor the level of TNF-α secretion in RAW 264.7 cells. The experimental ligands from SK21 to SK82 were administered at 0.5 μM or 2 μM to the RAW 264.7 cells and stimulated with Imiquimod (TLR7, 1 μg/ml) and OND2395 (TLR9, 0.5 μM).
For orientation: In an ELISA, binding on a coated surface is turned into a signal by an enzyme label.

A further experiment deals with T2, TLR9 (Mus musculus, UniProt Q9EQU3).
T2 construct: endogenous in cells; host or cells: RAW 264.7
T2 sequence (Q9EQU3 26-1032): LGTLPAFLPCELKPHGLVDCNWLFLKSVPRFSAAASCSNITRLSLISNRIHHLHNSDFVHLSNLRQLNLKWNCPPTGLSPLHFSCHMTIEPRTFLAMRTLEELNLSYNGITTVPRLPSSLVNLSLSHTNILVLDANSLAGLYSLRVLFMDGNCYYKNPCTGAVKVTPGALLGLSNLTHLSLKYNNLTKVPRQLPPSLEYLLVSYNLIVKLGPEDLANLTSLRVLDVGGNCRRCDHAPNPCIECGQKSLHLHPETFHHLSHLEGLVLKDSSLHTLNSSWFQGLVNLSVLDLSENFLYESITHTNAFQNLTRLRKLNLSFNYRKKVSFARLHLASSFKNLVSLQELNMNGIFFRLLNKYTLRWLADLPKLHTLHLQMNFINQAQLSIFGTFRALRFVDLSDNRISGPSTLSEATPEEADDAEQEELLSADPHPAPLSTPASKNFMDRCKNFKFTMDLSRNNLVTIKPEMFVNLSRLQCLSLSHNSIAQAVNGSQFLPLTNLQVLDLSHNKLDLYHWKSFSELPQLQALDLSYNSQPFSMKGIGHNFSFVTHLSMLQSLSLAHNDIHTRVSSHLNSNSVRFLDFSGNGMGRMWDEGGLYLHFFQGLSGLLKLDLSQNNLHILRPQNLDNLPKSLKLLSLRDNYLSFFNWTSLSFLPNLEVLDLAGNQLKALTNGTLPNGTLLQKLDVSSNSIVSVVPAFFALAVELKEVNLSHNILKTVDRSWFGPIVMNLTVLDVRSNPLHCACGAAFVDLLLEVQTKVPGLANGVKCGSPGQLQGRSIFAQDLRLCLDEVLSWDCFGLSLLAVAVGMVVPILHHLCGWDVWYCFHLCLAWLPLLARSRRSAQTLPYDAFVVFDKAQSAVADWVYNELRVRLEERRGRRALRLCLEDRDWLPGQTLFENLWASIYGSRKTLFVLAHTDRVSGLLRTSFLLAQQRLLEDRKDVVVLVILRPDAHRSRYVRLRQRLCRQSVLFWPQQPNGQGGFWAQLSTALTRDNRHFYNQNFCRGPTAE
Briefly: TNF-α secretion ELISA after TLR9 agonist ODN2395 in RAW 264.7 cells. Particulars: SK21 to SK82 at 0.5 μM or 2 μM, ODN2395 0.5 μM. It counts as cell-based. On the procedure: as §1, §2, §3

Take `CNCCCn1c(C)c(C)c2c(N)c3c(nc21)CCCCCC3` [SK75, 2,3-dimethyl-1-(3-(methylamino)propyl)-5,6,7,8,9,10-hexahydro-1H-cycloocta[b]pyrrolo[3,2-e]pyridin-4-amine]: at TLR7, the “inhibitory activity against TLR7 (level of TNF-α secretion)” value (shortened to “inhibitory activity against TLR7”) is “significant inhibitory activity; also recorded: significantly reduced”. In addition, the “inhibitory activity against TLR9 (level of TNF-α secretion)” value (“inhibitory activity against TLR9” below) at TLR9 is reported as “significant inhibitory activity; also recorded: significantly reduced”.
As for `CN(C)CCCn1c2cc(Cl)ccc2c2c(N)c3c(nc21)CCCC3` [SK82, 8-chloro-6-(3-(dimethylamino)propyl)-2,3,4,6-tetrahydro-1H-indolo[2,3-b]quinolin-11-amine], at TLR7, the “inhibitory activity against TLR7” value is “significant inhibitory activity; also recorded: significantly reduced”. In addition, the “inhibitory activity against TLR9” value on TLR9 is on record as “significant inhibitory activity; also recorded: significantly reduced”.
In the case of `CNCCCn1c2ccc(OC)cc2c2c(N)c3c(nc21)CCCC3` [SK54, 9-methoxy-6-(3-(methylamino)propyl)-2,3,4,6-tetrahydro-1H-indolo[2,3-b]quinolin-11-amine], the “inhibitory activity against TLR7” value on TLR7 was “significant inhibitory activity; also recorded: significantly reduced”. In addition, on TLR9, the “inhibitory activity against TLR9” value is listed as “significant inhibitory activity; also recorded: significantly reduced”.
As for `CN(C)CCCn1c2ccc(C#N)cc2c2c(N)c3c(nc21)CCCC3` [SK62, 11-amino-6-(3-(dimethylamino)propyl)-2,3,4,6-tetrahydro-1H-indolo[2,3-b]quinolin-9-carbonitrile], the “inhibitory activity against TLR7” value on TLR7 is recorded as “significant inhibitory activity; also recorded: significantly reduced”. The “inhibitory activity against TLR9” value on TLR9 was “significant inhibitory activity; also recorded: significantly reduced”.
In the case of `CN(C)CCCn1c2ccccc2c2c(N)c3c(nc21)CCCC3` [SK52, 6-(3-(dimethylamino)propyl)-2,3,4,6-tetrahydro-1H-indolo[2,3-b]quinolin-11-amine], on TLR7, the “inhibitory activity against TLR7” value was “significant inhibitory activity; also recorded: significantly reduced”. The “inhibitory activity against TLR9” value on TLR9 is “significant inhibitory activity; also recorded: significantly reduced”.
Turning to `Cc1cc2c(N)c3c(nc2n1CCCN(C)C)CCCCC3` [SK29, 1-(3-(dimethylamino)propyl)-2-methyl-1,5,6,7,8,9-hexahydrocyclohepta[b]pyrrolo[3,2-e]pyridin-4-amine], the “inhibitory activity against TLR7” value at TLR7 is on record as “significant inhibitory activity; also recorded: significantly reduced”. Also, the “inhibitory activity against TLR9” value on TLR9 is “significant inhibitory activity; also recorded: significantly reduced”.
On to `CN(C)CCCn1c2ccc(OCc3ccccc3)cc2c2c(N)c3c(nc21)CCCC3` [SK69, 9-(benzyloxy)-6-(3-(dimethylamino)propyl)-2,3,4,6-tetrahydro-1H-indolo[2,3-b]quinolin-11-amine], for which the “inhibitory activity against TLR7” value at TLR7 is recorded as “significant inhibitory activity; also recorded: significantly reduced”. Moreover, the “inhibitory activity against TLR9” value at TLR9 is listed as “significant inhibitory activity; also recorded: significantly reduced”.
Consider `CCc1nc2c(cc(C)n2CCCN(C)C)c(N)c1C` [SK40, 1-(3-(dimethylamino)propyl)-6-ethyl-2,5-dimethyl-1H-pyrrolo[2,3-b]pyridin-4-amine], for which the “inhibitory activity against TLR7” value on TLR7 is recorded as “significant inhibitory activity; also recorded: significantly reduced”. Also, the “inhibitory activity against TLR9” value at TLR9 is “significant inhibitory activity; also recorded: significantly reduced”.
With `Cc1ccc2c3c(N)c4c(nc3n(CCCN(C)C)c2c1)CCCC4` [SK81, 6-(3-(dimethylamino)propyl)-8-methyl-2,3,4,6-tetrahydro-1H-indolo[2,3-b]quinolin-11-amine], the “inhibitory activity against TLR7” value at TLR7 was “significant inhibitory activity; also recorded: significantly reduced”. In addition, the “inhibitory activity against TLR9” value on TLR9 is “significant inhibitory activity; also recorded: significantly reduced”.
Turning to `Cc1c(C)n(CCCN(C)Cc2ccccc2)c2nc3c(c(N)c12)CCCCC3` [SK23, 1-(3-(benzyl(methyl)amino)propyl)-2,3-dimethyl-1,5,6,7,8,9-hexahydrocyclohepta[b]pyrrolo[3,2-e]pyridin-4-amine], the “inhibitory activity against TLR7” value at TLR7 is “significant inhibitory activity; also recorded: significantly reduced”. The “inhibitory activity against TLR9” value at TLR9 is “significant inhibitory activity; also recorded: significantly reduced”.
Consider `CN(C)CCCn1c2ccc(O)cc2c2c(N)c3c(nc21)CCCC3` [SK71, 11-amino-6-(3-(dimethylamino)propyl)-2,3,4,6-tetrahydro-1H-indolo[2,3-b]quinolin-9-ol], for which the “inhibitory activity against TLR7” value at TLR7 is recorded as “significant inhibitory activity; also recorded: significantly reduced”. Further, the “inhibitory activity against TLR9” value on TLR9 is on record as “significant inhibitory activity; also recorded: significantly reduced”.
